According to patent publication US12012394B2, “Alpha-synuclein ligands” (Washington University, priority 2018, dated 2024):
Values joined by “and” are separate entries in the source; they are usually repeats but may differ in a detail not shown here. Equal entries are not always repeated.

Experiments:
Fibrils 4174 = Fibrils 4174 (Homo sapiens, UniProt P37840); assay: 3H radioligand competition, Fibrils 4174; format: binding; settings: hot concentration 2 nM
Method: (§1) A series of compounds were synthesized and the Ki (nM) in the presence of Fibrils 4174, PD-seeded fibrils (using Tg-1-90B as the radioligand), AD Tissue 6843 and/or AD Tissue 2846 was determined. In each experiment, the “hot” concentration was 2 nM.

PD-seeded fibrils [1] = target: T1, PD-seeded fibrils (Homo sapiens (Human), UniProt P37840); assay: Heterologous competition binding assay with [18F]TZ61-44 as radioligand; settings: radioligand [18F]TZ61-44, 25 nM PD-seeded fibrils; for Ki: Cheng-Prusoff from EC50
Method: The equilibrium inhibitor constant (Ki) of a series of compounds was measured using heterologous radioactive binding assays with [^18F]TZ61-44, […], or [^125I]TZ61-84 as the screening radioligands. EC50 values for each compound were determined by fitting the data to the equation Y=Bottom+(Top−Bottom)/(1+(X−Log EC50)^−Hillcoefficient) using nonlinear regression by Kaleidagraph software, where Top and Bottom are the Y values for the top and bottom plateaus of the binding curve. The Ki values were derived from the EC50 values using the Cheng-Prusoff equation: Ki=EC50/(1+[radioligand]/Kd). FIGS. 5A-5E show the inhibition curves for TG-1-90B, TZ55-101, TZ61-84, TZ55-107, and TZ55-81 using [^18F]TZ61-44 as the radioligand. FIG. 11B-C show the inhibition curves for two separate experiments on PD fibrils for TZ55-101 using […] as the radioligand. FIGS. 12A-12F show the inhibition curves for TZ66-3, TZ64-015, TZ64-016, TZ64-018, TZ64-019, and TZ64-020 using [^18F]TZ61-44 as the radioligand. FIGS. 13A-13D show the inhibition curves for TZ66-9, TZ66-8, and TZ55-107 using [^18F]TZ61-44 as the radioligand.

PD-seeded fibrils [2] = target: T1, PD-seeded fibrils; assay: Radioligand competition, PD-seeded fibrils (Tg-1-90B as radioligand); format: binding; settings: PD-seeded fibrils (Tg-1-90B radioligand); hot concentration 2 nM
Method: as §1

[3] = target: Banner PD-seeded α-synuclein fibrils (Homo sapiens (Human), UniProt P37840); assay: Homologous competition radioligand binding assay, PD-seeded fibrils
Method: The equilibrium dissociation constant (Kd) for a series of compounds was determined using direct radioactive competitive binding assays (homologous or heterologous) with either recombinant α-synuclein fibrils or brain tissue homogenates from AD cases.
Recombinant protein was produced in E. coli using protocols based on previously described methods for α-synuclein [Giasson, B. I., et al., “Mutant and wild type human alpha-synucleins assemble into elongated filaments with distinct morphologies in vitro,” 1999, J Biol. Chem., 274:7619-7622; Huang, C., et al., “A new method for purification of recombinant human alpha-synuclein in Escherichia coli,” 2005, Protein Expr Purif, 42:173-177; Yu, L., et al, “Synthesis and in vitro evaluation of á-synuclein ligands,” 2012, Bioorg. Med. Chem., 20:4625-4634] and tau [Li, W., et al., “Characterization of two VQIXXK motifs for tau fibrillization in vitro,” 2006, Biochemistry, 45:15692-15701]. BL21(DE3)RIL E. coli were transformed with a pRK172 bacterial expression plasmid containing the human α-synuclein coding sequence. […]. Overnight cultures were centrifuged at 3,900×g for 10 min at 25° C. and the bacterial pellets were resuspended by gentle vortexing in 20 ml osmotic shock buffer (30 mM Tris-HCl, 2 mM EDTA, 40% Sucrose, pH 7.2) and then incubated at room temperature for 10 min. The cell suspension was then centrifuged at 8,000×g for 10 min at 25° C. and the pellet was resuspended in 22.5 ml cold H2O before adding 9.4 μl 2 M MgCl2 to each tube. The suspension was incubated on ice for 3 min prior to centrifugation at 20,000×g for 15 min at 4° C. After the supernatant was transferred to a fresh tube, streptomycin was added to a final concentration of 10 mg/ml and centrifuged at 20,000×g for 15 min at 4° C. The supernatant from this step was collected and dithiothreitol (DTT) and Tris-HCl pH 8.0 were added to final concentrations of 1 mM and 20 mM respectively, before boiling for 10 min to precipitate heat-sensitive proteins, which were pelleted at 20,000×g for 15 min at 4° C. The supernatant was collected and filtered through a 0.45 μm surfactant-free cellulose acetate filter (Corning) before loading onto a 1 ml DEAE Sepharose column equilibrated in 20 mM Tris-HCl pH 8.0, 1 mM EDTA, and 1 mM DTT. The DEAE column was washed with 20 mM Tris-HCl pH 8.0, 1 mM EDTA, 1 mM DTT before eluting α-synuclein protein in 20 mM Tris-HCl pH 8.0 buffer with 1 mM EDTA, 1 mM DTT and 0.3 M NaCl. Purified α-synuclein protein was dialyzed overnight in 10 mM Tris-HCl pH 7.6, 50 mM NaCl, 1 mM DTT.
Purified recombinant α-synuclein monomer (2 mg/ml) was incubated in 20 mM Tris-HCl, pH 8.0, 100 mM NaCl for 72 h at 37 C with shaking at 1000 rpm in an Eppendorf Thermomixer. […] The concentration of α-synuclein monomer in the supernatant was determined in a BCA protein assay according to the manufacturer's instructions, using a bovine serum albumin (BSA) standard curve. The measured decrease in α-synuclein monomer concentration was used to determine the concentration of fibrils in the 72 h fibril reaction mixture. […]
These direct binding assays used a fixed concentration of either fibrils or PD/AD tissue and the radioligand (e.g., [^18F]28) and varying concentration ranges of corresponding homologous non-radiolabeled standard reference compound. […] Reactions were incubated at 37° C. for 1 h before quantifying bound radioligand. […]

[4] = MicroPET studies in the brain of nonhuman primate; format: in vivo; settings: male adult cynomolgus macaca
Method: 9.93 mCi of [^18F]TZ61-44 was injected into a male adult cynomolgus macaca (9.25 Kg) 10.57 mCi of [^11C]TZ55-107 was injected into was injected into a male adult cynomolgus macaca (9.40 Kg) A simplified reference tissue model (SRTM) and spatially-constraint linear regression algorithm was used to generate R1 and DVR images (FIGS. 18A and 18B).
FIGS. 19A and 19B graphically depict the uptake of labeled TZ55-107 and TZ61-44 in the animals. [^18F]TZ61-44 had highest cortical uptake (SUV) of ˜3.48 at 4 min and the uptake ratio at 4 min versus 120 min reached ˜4.2 (FIG. 19A); [^11C]TZ55-107 had highest cortical uptake of ˜6.40 at 4 min, and the uptake ratio at 4 min versus 120 min reached ˜6.30 (FIG. 19B).

α-synuclein fibrils = α-synuclein fibrils (Homo sapiens (Human), UniProt P37840); assay: Thioflavin T fluorescence competitive assay; settings: for Ki: read-out: Thioflavin T assay Ki, competition with ThT on recombinant α-synuclein fibrils, at least three experiments
Method: α-Synuclein recombinant protein was produced in E. coli. BL21(DE3)RIL E. coli were transformed with a pRK172 bacterial expression plasmid containing the human α-synuclein coding sequence. […] Overnight cultures were pelleted by centrifugation at 3,900×g for 10 min at 25° C. Bacterial pellets were resuspended in 20 mL osmotic shock buffer (30 mM Tris-HCl, 2 mM EDTA, 40% sucrose, pH 7.2) by gentle vortexing and incubated at room temperature for 10 minutes. The cell suspension was then centrifuged at 8,000×g for 10 min at 25° C. and the pellet was resuspended in 22.5 mL cold H2O before adding 9.4 μL 2 M MgCl2 to each tube. The suspension was incubated on ice for 3 min prior to centrifugation at 20,000×g for 15 min at 4° C. The supernatant was transferred to a fresh tube, streptomyocin was added to a final concentration of 10 mg/mL, and then centrifuged at 20,000×g for 15 min at 4° C. The supernatant from this step was collected and dithiothreitol (DTT) and Tris-HCl were added to final concentrations of 1 mM and 20 mM respectively, before boiling for 10 min to precipitate heat-sensitive proteins, which were pelleted at 20,000×g for 15 minutes at 4° C. The supernatant was collected and filtered through a 0.45 μm surfactant free cellulose acetate filter (Corning, Corning, NY) before loading onto a 1 mL DEAE Sepharose column equilibrated in 20 mM Tris-HCl pH 8, 1 mM EDTA, and 1 mM DTT. The DEAE column was washed with 20 mM Tris-HCl pH 8, 1 mM EDTA, 1 mM DTT before eluting α-synuclein protein in 20 mM Tris-HCl, pH 8, buffer with 1 mM EDTA, 1 mM DTT and 0.3 M NaCl. The purified α-synuclein protein was dialyzed overnight in 10 mM Tris-HCl, pH 7.6, 50 mM NaCl, and 1 mM DTT.
The purified, recombinant α-synuclein monomer (2 mg/mL) was incubated in Tris-HCl (20 mM) and NaCl (100 mM) while shaking at 1000 rpm in an Eppendorf Thermomixer in a 37° C. temperature-controlled room for 72 hours. To determine the concentration of fibrils, the reaction mixture (100 μL) was centrifuged at 18,000×g for 10 minutes to separate fibrils from monomer. The α-synuclein monomer and other soluble proteins in the supernatant were removed, and the fibril pellet was resuspended in 100 μL solution of Tris-HCl (20 mM) and NaCl (100 mM). This fibril suspension was used in a bicinchoninic acid (BCA) protein assay along with a bovine serum albumin (BSA) standard curve to determine the concentration of fibrils in the 72 hour fibril reaction mixture.
To prepare the fibrils for performing binding assays, the fibril reaction mixture prepared above was centrifuged at 18,000×g for 10 minutes. The supernatant was discarded and the fibril pellet was resuspended in Tris-HCl buffer (30 nM, pH=7.4) to achieve the desired concentration (3 or 6 μM) of fibrils for use in the assay.
The ThT solution (6 μM) in Tris-HCl buffer (30 nM, pH=7.4, 40 μL) was added to each of three cells in a 96 cell plate for fluorescence detection containing α-synuclein fibrils suspension (3.0 μM) in the Tris-HCl buffer (30 nM, pH=7.4, 40 μL). The mixture was incubated at room temperature for 1 hour on the shaking plate. The reaction plate was scanned by the excitation wavelength range from 430 to 465 nm. The maximum excitation wavelength (λex) was determined according to the fluorescent intensity-excitation wavelength curve.

AD Tissue 2846 = assay: 3H radioligand competition, AD Tissue 2846; format: binding; settings: hot concentration 2 nM
Method: as §1

AD Tissue 6843 = assay: 3H radioligand competition, AD Tissue 6843; format: binding; settings: hot concentration 2 nM
Method: as §1

| Compound | EC50 (PD-seeded fibrils [1]) | Ki (PD-seeded fibrils [1]) | Ki (α-synuclein fibrils) [nM] | also measured |
| --- | --- | --- | --- | --- |
| COc1cccc(-c2nc(-c3ccc4cc(OC)ccc4n3)no2)c1 [TZ46-139] | – | – | – | Ki (Fibrils 4174): 222 nM |
| COc1ccc2nc(-c3csc(C(=O)O)c3)ccc2c1 [TZ66-3] | 78 nM | 73 nM | – | – |
| COc1ccc2nc(-c3noc(-c4ccc(-n5ccnc5)cc4)n3)ccc2c1 [TZ46-155] | – | – | – | Ki (PD-seeded fibrils [2]): 230 nM |
| COc1ccc2nc(Nc3ccnc(OC)c3)ccc2c1 [TZ55-107] | 24 nM and 36 nM | 22 nM and 34 nM | – | binding affinity towards PD / α-synuclein fibrils ([3]; preliminary / initial competitive binding assays): good binding affinity; selectivity ([3]; preliminary binding assays): moderate selectivity; highest cortical uptake (SUV) ([4]; brain cortex, at 4 min): ~6.40 SUV; uptake ratio at 4 min versus 120 min ([4]; brain cortex): ~6.30; blood brain barrier penetration [4]: able to penetrate the blood brain barrier |
| CC(C)Oc1ccc2nc(-c3noc(-c4ccn5ccnc5c4)n3)ccc2c1 [Compound 32, 5-(Imidazo[1,2-c]pyridin-7-yl)-3-(6-isopropoxyquinolin-2-yl)-1,2,4-oxadiazole] | – | – | > 1000 | – |
| COc1ccc2nc(-c3noc(-c4cscn4)n3)ccc2c1 [TZ46-117] | – | – | – | Ki (Fibrils 4174): 156 nM |
| COc1ccc(Nc2ccc3cccc(F)c3n2)cn1 [TZ64-016] | 45 nM | 42 nM | – | – |
| COc1ccc2nc(-c3coc(C=O)c3)ccc2c1 [TZ64-19] | – | – | 10.4 | potency in Thioflavin T assay (α-synuclein fibrils): high potency |
| COc1ccc2nc(-c3csc(C#N)c3)ccc2c1 [TZ64-020] | 37 nM | 34 nM | – | – |
| COc1ccc2nc(Nc3coc(C=O)c3)ccc2c1 [TZ64-91] | – | – | 18 | potency in Thioflavin T assay (α-synuclein fibrils): high potency |
| C=CCOCc1cc(-c2ccc3cc(OC)ccc3n2)cs1 [TZ66-8] | 73 nM | 68 nM | – | – |
| COc1ccc2nc(-c3noc(-c4ccc(-n5cccn5)cc4)n3)ccc2c1 [TZ46-148] | – | – | – | Ki (Fibrils 4174): 82 nM; Ki (PD-seeded fibrils [2]): 17 nM; Ki (AD Tissue 2846): 7 nM; Ki (AD Tissue 6843): 13 nM |
| COc1ccc(Nc2ccc3cc([N+](=O)[O-])ccc3n2)cn1 [TZ64-55] | – | – | 15 | potency in Thioflavin T assay (α-synuclein fibrils): high potency |
| COC(=O)c1cc(-c2ccc3cc(OC)ccc3n2)cs1 [TZ66-25] | – | – | 17 | potency in Thioflavin T assay (α-synuclein fibrils): high potency |
| COc1ccc2cc(-c3noc(-c4ccnc(F)c4)n3)ccc2c1 [TZ46-102] | – | – | – | Ki (Fibrils 4174): 203 nM |
| COc1ccc(Nc2ccc3cc(Br)ccc3n2)cn1 [TZ64-105] | – | – | 10 | potency in Thioflavin T assay (α-synuclein fibrils): high potency |

| Compound | EC50 (PD-seeded fibrils [1]) | Ki (PD-seeded fibrils [1]) | Ki (α-synuclein fibrils) [nM] | also measured |
| --- | --- | --- | --- | --- |
| COc1ccc2nc(-c3csc(/C=N/O)c3)ccc2c1 [TZ66-16] | – | – | 11 | potency in Thioflavin T assay (α-synuclein fibrils): high potency |
| COc1ccc2nc(-c3noc(-c4cocn4)n3)ccc2c1 [TZ46-120] | – | – | – | Ki (Fibrils 4174): 646 nM |
| COc1ccc2nc(-c3coc(C=O)c3)ccc2c1 [TZ64-019] | 28 nM | 27 nM | – | – |
| COCc1cc(-c2ccc3cc(OC)ccc3n2)cs1 [TZ66-9] | 84 nM | 78 nM | – | – |
| COc1ccc2nc(-c3noc(-c4ccnc(OC)c4)n3)ccc2c1 [Compound 27, 5-(2-Methoxypyridin-4-yl)-3-(6-methoxyquinolin-2-yl)-1,2,4-oxadiazole] | – | – | 630 | – |
| COCOc1ccc2nc(-c3noc(-c4ccnc(OC)c4)n3)ccc2c1 [Compound 29, 3-(6-(Methoxymethoxy)quinolin-2-yl)-5-(2-methoxypyridin-4-yl)-1,2,4-oxadiazole] | – | – | > 1000 | – |
| COc1ccc2nc(-c3noc(-c4ccc5c(c4)OCO5)n3)ccc2c1 [TZ46-136] | – | – | – | Ki (Fibrils 4174): 162 nM |
| COc1ccc(Nc2ccc3c([N+](=O)[O-])cccc3n2)cn1 [TZ64-82] | – | – | 18 | potency in Thioflavin T assay (α-synuclein fibrils): high potency |
| COc1ccc(Nc2ccc3c(F)cccc3n2)cn1 [TZ64-015] | 46 nM | 43 nM | – | – |
| COc1ccc2nc(-c3noc(-c4ccn5ccnc5c4)n3)ccc2c1 [Compound 31, 5-(Imidazo[1,2-c]pyridin-7-yl)-3-(6-methoxyquinolin-2-yl)-1,2,4-oxadiazole] | – | – | > 1000 | – |
| COc1cc(-c2nc(-c3ccc4cc(OC(C)C)ccc4n3)no2)ccn1 [Compound 30, 3-(6-Isopropoxyquinolin-2-yl)-5-(2-methoxypyridin-4-yl)-1,2,4-oxadiazole] | – | – | > 1000 | – |
| COc1ccc(Nc2ccc3cc(F)ccc3n2)cn1 [TZ64-013] | 29 nM | 27 nM | – | – |
| COc1ccc(Nc2ccc3cc(I)ccc3n2)cn1 [TZ64-102] | – | – | 12 | potency in Thioflavin T assay (α-synuclein fibrils): high potency |
| COCOc1ccc2nc(-c3noc(-c4ccn5ccnc5c4)n3)ccc2c1 [Compound 34, 5-(Imidazo[1,2-c]pyridin-7-yl)-3-(6-(methoxymethoxy)-quinolin-2-yl)-1,2,4-oxadiazole] | – | – | > 1000 | – |
| COc1ccc2nc(-c3csc(C(C)=O)c3)ccc2c1 [TZ64-018] | 127 nM | 119 nM | – | – |
| FCCOc1ccc2nc(-c3noc(-c4ccn5ccnc5c4)n3)ccc2c1 [Compound 33, 3-(6-(2-Fluoroethoxy)quinolin-2-yl)-5-(imidazo[1,2-c]pyridin-7-yl)-1,2,4-oxadiazole] | – | – | > 1000 | – |
